Experimental data taken from PMC7490411 (Signal Transduction and Targeted Therapy, 2020).

Key:
[1] = test system: RPS6KA5(Kin.Dom.1-N-terminal); assay: KINOMEscan; format: binding; conditions: 1000 nM
[2] = test system: PRKR; assay: KINOMEscan; format: binding; conditions: 1000 nM
[3] = test system: PIM1; assay: KINOMEscan; format: binding; conditions: 1000 nM
[4] = test system: PLK2; assay: KINOMEscan; format: binding; conditions: 1000 nM
[5] = test system: PIK3CA(C420R); assay: KINOMEscan; format: binding; conditions: 1000 nM
[6] = test system: EGFR(E746-A750del); assay: KINOMEscan; format: binding; conditions: 1000 nM
[7] = test system: PAK7; assay: KINOMEscan; format: binding; conditions: 1000 nM
[8] = test system: TGFBR1; assay: KINOMEscan; format: binding; conditions: 1000 nM
[9] = test system: AURKC; assay: KINOMEscan; format: binding; conditions: 1000 nM
[10] = test system: ABL1(Q252H)-phosphorylated; assay: KINOMEscan; format: binding; conditions: 1000 nM
[11] = test system: JAK3(JH1domain-catalytic); assay: KINOMEscan; format: binding; conditions: 1000 nM
[12] = test system: BRAF; assay: KINOMEscan; format: binding; conditions: 1000 nM
[13] = test system: MAP3K3; assay: KINOMEscan; format: binding; conditions: 1000 nM
[14] = test system: LCK; assay: KINOMEscan; format: binding; conditions: 1000 nM
[15] = test system: EPHB1; assay: KINOMEscan; format: binding; conditions: 1000 nM
[16] = test system: MAP3K1; assay: KINOMEscan; format: binding; conditions: 1000 nM
[17] = test system: BRSK2; assay: KINOMEscan; format: binding; conditions: 1000 nM
[18] = test system: MET(M1250T); assay: KINOMEscan; format: binding; conditions: 1000 nM
[19] = test system: YSK4; assay: KINOMEscan; format: binding; conditions: 1000 nM
[20] = test system: PRKX; assay: KINOMEscan; format: binding; conditions: 1000 nM
[21] = test system: CDKL3; assay: KINOMEscan; format: binding; conditions: 1000 nM
[22] = test system: RET(V804L); assay: KINOMEscan; format: binding; conditions: 1000 nM
[23] = test system: DDR2; assay: KINOMEscan; format: binding; conditions: 1000 nM
[24] = test system: FLT3; assay: KINOMEscan; format: binding; conditions: 1000 nM
[25] = test system: BRAF(V600E); assay: KINOMEscan; format: binding; conditions: 1000 nM
[26] = test system: CDK4; assay: KINOMEscan; format: binding; conditions: 1000 nM
[27] = test system: CSNK1G1; assay: KINOMEscan; format: binding; conditions: 1000 nM
[28] = test system: DDR1; assay: KINOMEscan; format: binding; conditions: 1000 nM
[29] = test system: SIK2; assay: KINOMEscan; format: binding; conditions: 1000 nM
[30] = test system: NEK6; assay: KINOMEscan; format: binding; conditions: 1000 nM
[31] = test system: ZAK; assay: KINOMEscan; format: binding; conditions: 1000 nM
[32] = test system: ABL1-phosphorylated; assay: KINOMEscan; format: binding; conditions: 1000 nM
[33] = test system: PFTK1; assay: KINOMEscan; format: binding; conditions: 1000 nM
[34] = test system: Mino cells; assay: NK-cell-mediated ADCC, LDH release cytotoxicity assay, Rituximab; format: cell-based, human
Method: The cytotoxicity of NK cells was measured using the CyQUANT™ LDH Cytotoxicity Assay Kit (Invitrogen™, #C20300) according to the manufacturer’s instructions. Briefly, enriched NK cells (6 × 10^5 /ml) were cultured with the same volume of Mino cell and SK-OV-3 cell (1-2 × 10^4 /ml) in a 96-well plate for 4 h with Rituximab and Herceptin (10 μg/mL) and CHMFL-BTK-85 or PCI32765 at 37°C in a humidified CO2 incubator prior to removal of the supernatant for lactate dehydrogenase (LDH) release measurements. Calculate % Cytotoxicity by using the following formula: %Cytotoxicity = (Compound-treated LDH activity-Spontaneous LDH activity)/(Maximum LDH activity-Spontaneous LDH activity)*100.

[35] = test system: ULK3; assay: KINOMEscan; format: binding; conditions: 1000 nM
[36] = test system: PLK1; assay: KINOMEscan; format: binding; conditions: 1000 nM
[37] = test system: ACVRL1; assay: KINOMEscan; format: binding; conditions: 1000 nM
[38] = test system: ABL1(H396P)-nonphosphorylated; assay: KINOMEscan; format: binding; conditions: 1000 nM
[39] = test system: TSSK1B; assay: KINOMEscan; format: binding; conditions: 1000 nM
[40] = test system: RIPK4; assay: KINOMEscan; format: binding; conditions: 1000 nM
[41] = test system: ERK8; assay: KINOMEscan; format: binding; conditions: 1000 nM
[42] = test system: PIP5K1A; assay: KINOMEscan; format: binding; conditions: 1000 nM
[43] = test system: KIT(A829P); assay: KINOMEscan; format: binding; conditions: 1000 nM
[44] = test system: CAMK1; assay: KINOMEscan; format: binding; conditions: 1000 nM
[45] = test system: CDK7; assay: KINOMEscan; format: binding; conditions: 1000 nM
[46] = test system: ERK1; assay: KINOMEscan; format: binding; conditions: 1000 nM
[47] = test system: DAPK1; assay: KINOMEscan; format: binding; conditions: 1000 nM
[48] = test system: ICK; assay: KINOMEscan; format: binding; conditions: 1000 nM
[49] = test system: NDR2; assay: KINOMEscan; format: binding; conditions: 1000 nM
[50] = test system: CSNK1A1L; assay: KINOMEscan; format: binding; conditions: 1000 nM

`C=CC(=O)Nc1cc(Nc2cc(-c3cccc(NC(=O)c4cc5c(s4)CCCC5)c3C)cn(C)c2=O)ccc1N1CCN(CC)CC1` [CHMFL-BTK-85] was tested. Which “Percent Control” value [1] did it give?
Its value is 90%.

What about the “Percent Control” value [2] of the same compound?
The value was 49%.

What about the “Percent Control” value [3] of the same compound?
Its value is 95%.

What about the “Percent Control” value [4] of the same compound?
The value was 100%.

What about the “Percent Control” value [5] of the same compound?
The value was 98%.

What about the “Percent Control” value [6] of the same compound?
The value was 100%.

And the “Percent Control” value [7]?
The value was 82%.

What about the “Percent Control” value [8] of the same compound?
The value was 88%.

What about the “Percent Control” value [9] of the same compound?
Its value is 100%.

What about the “Percent Control” value [10] of the same compound?
Its value is 96%.

What about the “Percent Control” value [11] of the same compound?
Its value is 80%.

What about the “Percent Control” value [12] of the same compound?
The value was 100%.

And the “Percent Control” value [13]?
Its value is 100%.

And the “Percent Control” value [14]?
The value was 86%.

And the “Percent Control” value [15]?
Its value is 100%.

What about the “Percent Control” value [16] of the same compound?
Its value is 99%.

What about the “Percent Control” value [17] of the same compound?
Its value is 99%.

And the “Percent Control” value [18]?
Its value is 95%.

And the “Percent Control” value [19]?
Its value is 100%.

What about the “Percent Control” value [20] of the same compound?
Its value is 95%.

What about the “Percent Control” value [21] of the same compound?
The value was 99%.

What about the “Percent Control” value [22] of the same compound?
Its value is 76%.

What about the “Percent Control” value [23] of the same compound?
Its value is 100%.

And the “Percent Control” value [24]?
The value was 80%.

What about the “Percent Control” value [25] of the same compound?
Its value is 100%.

What about the “Percent Control” value [26] of the same compound?
Its value is 100%.

And the “Percent Control” value [27]?
Its value is 95%.

What about the “Percent Control” value [28] of the same compound?
The value was 100%.

And the “Percent Control” value [29]?
The value was 83%.

What about the “Percent Control” value [30] of the same compound?
Its value is 100%.

And the “Percent Control” value [31]?
The value was 99%.

And the “Percent Control” value [32]?
The value was 72%.

And the “Percent Control” value [33]?
The value was 80%.

What about the “effect on antibody-dependent NK-cell-mediated cytotoxicity (ADCC)” value [34] of the same compound?
The value was “did not affect”.

What about the “Percent Control” value [35] of the same compound?
The value was 100%.

And the “Percent Control” value [36]?
Its value is 100%.

And the “Percent Control” value [37]?
Its value is 100%.

What about the “Percent Control” value [38] of the same compound?
The value was 92%.

What about the “Percent Control” value [39] of the same compound?
Its value is 88%.

And the “Percent Control” value [40]?
The value was 100%.

And the “Percent Control” value [41]?
Its value is 95%.

What about the “Percent Control” value [42] of the same compound?
Its value is 96%.

What about the “Percent Control” value [43] of the same compound?
The value was 92%.

What about the “Percent Control” value [44] of the same compound?
The value was 100%.

What about the “Percent Control” value [45] of the same compound?
The value was 96%.

And the “Percent Control” value [46]?
Its value is 93%.

What about the “Percent Control” value [47] of the same compound?
The value was 98%.

And the “Percent Control” value [48]?
The value was 100%.

And the “Percent Control” value [49]?
Its value is 34%.

And the “Percent Control” value [50]?
The value was 100%.
